What was measured:
[1] = system: bacteria inoculated into the medium; conditions: nicotinic acid 0.1 M; three to four days
Description: (§1) The base ISTOR medium has the following composition:
(§2) The medium was prepared in potassium phosphate buffer at pH 5.7.

fungi tested = conditions: nicotinic acid 0.1 M; three to four days
Description: as §1, §2

## O=C(O)c1cccnc1 [nicotinic acid]
[1]
  growth of bacteria: none of the bacteria inoculated into the medium grew
Fungi tested
  growth of fungi: all of the fungi tested exhibited growth
other
  solubility in water: not very soluble in water
